Measurements: patent US5880146A, “Inhibition of IL-12-induced IFN-γ synthesis by specific bis-phenol compounds as a method of immune modulation” (Fuji ImmunoPharmaceuticals Corporation, priority 1995, dated 1999)
“Also recorded” adds a separate entry of the source.

Tests used:
[1] = test system: IL-12 induction of IFN-γ in PHA-activated human PBMC; assay: Screening assay for compounds which inhibit IL-12 induction of IFN-γ (ELISA); assay type: cell-based; settings: 5 μg/ml, IL-2 25 U/ml + IL-12 0.5 ng/ml, 48 hr, single test, read-out: % INH of IFNγ
Procedure: Human peripheral blood monocytes (PBMC) were obtained from commercial sources as a leukophoresis from a healthy volunteer and were purified by centrifugation on a Ficoll-Hypaque (Pharmacia) gradient (1700 rpm for 20 min). The "buffy" coat containing the PBMC was diluted with serum-free culture medium (SF-RPMI) to a volume of 50 ml and collected by centrifugation at 1500 rpm for 5 min. Cells were resuspended in cell culture medium containing 10% fetal bovine serum (RPMI-10) and phytohemaglutinin (PHA - 10 μg/ml) at a density of 5×10^6 cells/ml and were cultured for 3 days at 37° C. in a humidified CO2 incubator. The PHA-activated cells were collected by centrifugation, washed three times with an equal volume of SF-RPMI and resuspended in fresh RPMI-10 (1×10^6 cells /ml). Aliquots (100 μl) were dispensed into the wells of multiple 96-well plates to give a final cell number of 10^5 per well. Test compounds, dissolved in dimethyl sulfoxide (DMSO) at 1 mg/ml, were first diluted in culture medium to an intermediate concentration of 20 μg/ml and then were added (50 μwell) to a specific well of the plate for each compound. Stimulation medium (50 μl/well) containing 10% serum, IL-2 and IL-12 was added to final concentrations of 25 U/ml and 0.5 ng/ml, respectively. Control wells receive no IL-2 or IL-12 (negative control) or received both interleukins but no test compound (positive control). The plates were incubated for 48 hr at 37° C. in a CO2 incubator at which time aliquots (20 μl) were removed for analysis of IFN-γ concentration by ELISA. A quantitative ELISA was developed by coating 96-well plates with an mouse monoclonal antibody against human IFN-γ, 1 μg/ml in phosphate buffered saline (PBS) (Pestka Biological Laboratories), overnight at 4° C. Unbound antibody was washed off by washing three times with PBS. Non-specific antibody binding was blocked with a solution of 1% bovine serum albumin (BSA) and 1% goat serum in PBS (150 μl/well) which was incubated for 2 hr at 37° C. After washing the blocked plates four times with PBS, test samples and dilutions of the IFN-γ standard are added in a final volume of 100 μl/well. Following an overnight incubation at 4° C., the plates are washed four times with PBS, and a polyclonal rabbit antiserum against human IFN-γ (1/10000 dilution--Petska Biological Laboratories) is added. After an additional incubation for 1 hr at 37° C. and four washes with PBS, a polyclonal donkey anti-rabbit detecting antibody, conjugated to horseradish peroxidase (1/700 dilution--Petska Biological Laboratories) is added for 1 hr at 37° C. The plates are then washed four times with PBS and 100 μl of K-blue substrate E(ILISA Technologies, Neogen Corp.) is added until the color in the wells containing the standard curve is sufficiently developed, at which time 100 μl of "Red-stop" solution (ELISA Technologies) is added. The absorbance of the solution within each well of the plate is then read at 650 nm using an ELISA plate reader (Dynatech MR7000). The amount of IFN-γ is calculated by comparing the optical density of the test sample with a standard curve derived from the dilutions of the control IFN-y. The amount of IFN-γ that is induced in the presence of both IL-2 and IL-12 generally ranges from 1200-2000 pg/ml while the amount produced in the absence of IL-12 is generally less than 50 pg/ml. Experimental data are shown in Table 2 which discloses a) the percent inhibition of IFNγ production, relative to a […], when the cells have been treated with a bis-compound at a final concentration of 5 μg/ml of the listed bis-compound (%INH or IFNγ) and b) the percent of cells which are viable after the treatment with 5 μg/ml of the various bis-compounds, determined by adding MTS to the media (% Viability). MTS is a chemical chromophore that is metabolized in the mitochondria of viable cells to produce a color which increases in intensity in proportion to the numbers of viable cells. […]

[2] = Cell viability (MTS) after treatment with bis-compound; assay type: cell-based; settings: human, pha-activated pbmc, 5 μg/ml
Procedure: Human peripheral blood monocytes (PBMC) were obtained from commercial sources as a leukophoresis from a healthy volunteer and were purified by centrifugation on a Ficoll-Hypaque (Pharmacia) gradient (1700 rpm for 20 min). The "buffy" coat containing the PBMC was diluted with serum-free culture medium (SF-RPMI) to a volume of 50 ml and collected by centrifugation at 1500 rpm for 5 min. Cells were resuspended in cell culture medium containing 10% fetal bovine serum (RPMI-10) and phytohemaglutinin (PHA - 10 μg/ml) at a density of 5×10^6 cells/ml and were cultured for 3 days at 37° C. in a humidified CO2 incubator. The PHA-activated cells were collected by centrifugation, washed three times with an equal volume of SF-RPMI and resuspended in fresh RPMI-10 (1×10^6 cells /ml). Aliquots (100 μl) were dispensed into the wells of multiple 96-well plates to give a final cell number of 10^5 per well. Test compounds, dissolved in dimethyl sulfoxide (DMSO) at 1 mg/ml, were first diluted in culture medium to an intermediate concentration of 20 μg/ml and then were added (50 μwell) to a specific well of the plate for each compound. Stimulation medium (50 μl/well) containing 10% serum, IL-2 and IL-12 was added to final concentrations of 25 U/ml and 0.5 ng/ml, respectively. Control wells receive no IL-2 or IL-12 (negative control) or received both interleukins but no test compound (positive control). The plates were incubated for 48 hr at 37° C. in a CO2 incubator at which time aliquots (20 μl) were removed for analysis of IFN-γ concentration by ELISA. A quantitative ELISA was developed by coating 96-well plates with an mouse monoclonal antibody against human IFN-γ, 1 μg/ml in phosphate buffered saline (PBS) (Pestka Biological Laboratories), overnight at 4° C. Unbound antibody was washed off by washing three times with PBS. Non-specific antibody binding was blocked with a solution of 1% bovine serum albumin (BSA) and 1% goat serum in PBS (150 μl/well) which was incubated for 2 hr at 37° C. After washing the blocked plates four times with PBS, test samples and dilutions of the IFN-γ standard are added in a final volume of 100 μl/well. Following an overnight incubation at 4° C., the plates are washed four times with PBS, and a polyclonal rabbit antiserum against human IFN-γ (1/10000 dilution--Petska Biological Laboratories) is added. After an additional incubation for 1 hr at 37° C. and four washes with PBS, a polyclonal donkey anti-rabbit detecting antibody, conjugated to horseradish peroxidase (1/700 dilution--Petska Biological Laboratories) is added for 1 hr at 37° C. The plates are then washed four times with PBS and 100 μl of K-blue substrate E(ILISA Technologies, Neogen Corp.) is added until the color in the wells containing the standard curve is sufficiently developed, at which time 100 μl of "Red-stop" solution (ELISA Technologies) is added. The absorbance of the solution within each well of the plate is then read at 650 nm using an ELISA plate reader (Dynatech MR7000). The amount of IFN-γ is calculated by comparing the optical density of the test sample with a standard curve derived from the dilutions of the control IFN-y. […] MTS is a chemical chromophore that is metabolized in the mitochondria of viable cells to produce a color which increases in intensity in proportion to the numbers of viable cells. The absorbance of the cell culture can be compared to control cultures in order to determine the percent viability.

mice = assay: Toxicity of bis-compounds after single systemic dose; assay type: in vivo; settings: 20% DMSO, 16% cremaphor
[3] = as above; assay type: in vivo; settings: mouse, in vivo, 20% DMSO, 16% cremaphor, single dose

SMILES	inhibition at 5 µg/mL [1] [%]	viability [2] [%]	further results
Cc1cc(Cl)cc(Cc2cc(Cl)cc(C)c2O)c1O [Compound 8296]	103	37	
Cc1cc(C)c(O)c(C(CCCCCCC(C)C)c2cc(C)cc(C)c2O)c1 [Compound 8302]	95	100	Results (Dead/Alive) (mice; 100 mg/kg IV, 10 mg/ml): Alive; Results (Dead/Alive) (mice; 150 mg/kg IV, 10 mg/ml): Alive; Results (Dead/Alive) (mice; 200 mg/kg IV, 15 mg/ml): Alive 1; also recorded: Dead 1; LD50 ([3]; iv, conc. sol. 10 mg/ml): > 150 mg/kg; LD50 ([3]; iv, conc. sol. 15 mg/ml): 200 mg/kg
Cc1cc(C)c(O)c(Cc2cc(C)cc(C)c2O)c1 [Compound 51850]	77	97	Results (Dead/Alive) (mice; 100 mg/kg IV, 10 mg/ml): Alive; Results (Dead/Alive) (mice; 150 mg/kg IV, 10 mg/ml): Alive; LD50 ([3]; iv, conc. sol. 10 mg/ml): > 150 mg/kg
CCCC(c1cc(C)cc(C)c1O)c1cc(C)cc(C)c1O [Compound 51851]	86	107	
CC(C)(C)c1cc2c(cc1O)C(C)(C)c1cc(O)c(C(C)(C)C)cc1O2 [Compound 53433]	97	26	
CC(C)(C)CC(C)(C)c1cc2c(cc1O)C(C)(C)c1cc(O)c(C(C)(C)CC(C)(C)C)cc1O2 [Compound 53437]	74	85	
Cc1cc(C(c2cc(C)c(O)c(C)c2)c2ccc(O)c(O)c2)cc(C)c1O [Compound 54004]	-37	99	
Cc1cc(C(C)c2cc(C)cc(C(C)(C)C)c2O)c(O)c(C(C)(C)C)c1 [Compound 54005]	96	30	
Cc1cc(O)c(C(C)C)cc1C(c1ccccc1)c1cc(C(C)C)c(O)cc1C [Compound 54007]	95	26	
CCC(c1cc(C)cc(C(C)(C)C)c1O)c1cc(C)cc(C(C)(C)C)c1O [Compound 54008]	91	69	
Cc1cc(C(c2ccc(Cl)cc2)c2cc(C)c(O)c(C)c2)cc(C)c1O [Compound 54042]	28	102	
Cc1cc(C(C)(C)c2cc(C)c(O)c(C)c2)cc(C)c1O [Compound 54046]		95	Results (Dead/Alive) (mice; 100 mg/kg IV, 10 mg/ml): Alive; Results (Dead/Alive) (mice; 150 mg/kg IV, 10 mg/ml): Alive; LD50 ([3]; IV, conc. sol. 10 mg/ml): > 150 mg/kg
Cc1cc(C2(c3ccc(O)c(C)c3)CCCCC2)ccc1O [Compound 54048]	68	79	
Cc1cc(C(c2ccc(C(=O)O)cc2)c2cc(C)c(O)c(C)c2)cc(C)c1O [Compound 54050]	63	86	
Cc1cc(C(c2ccc([N+](=O)[O-])cc2)c2cc(C)c(O)c(C(C)(C)C)c2)cc(C(C)(C)C)c1O [Compound 54053]	93	33	
Cc1cc(C(C)c2cc(C)c(O)c(C(C)(C)C)c2)cc(C(C)(C)C)c1O [Compound 54054]	98	27	
CC(C)(C)c1cc(C(c2ccc(C(=O)O)cc2)c2cc(C(C)(C)C)c(O)c(C(C)(C)C)c2)cc(C(C)(C)C)c1O [Compound 54055]	83	88	
CCC(C)(c1cc(C)c(O)c(C)c1)c1cc(C)c(O)c(C)c1 [Compound 54056]	84	87	
Cc1cc(C(c2ccccc2)c2cc(C)c(O)c(C(C)(C)C)c2)cc(C(C)(C)C)c1O [Compound 54058]	88	86	
CCCCCCC(C)(c1ccc(O)cc1)c1ccc(O)c(C)c1 (stereo not drawn) [Compound 54059]	64	88	
CCCC(C)(c1ccc(O)cc1)c1ccc(O)c(C)c1 (stereo not drawn) [Compound 54063]		93	
CCCCCCC(C)(c1ccc(O)c(C)c1)c1ccc(O)c(C)c1 [Compound 54094]		25	
CCCC(CCC)(c1ccc(O)cc1)c1ccc(O)c(C)c1 [Compound 54099]		93	
CCC(c1cc(C)c(O)c(C(C)C)c1)c1cc(C)c(O)c(C(C)C)c1 [Compound 54109]	93	33	
Cc1cc(C(c2ccc(C(C)C)cc2)c2cc(C)c(O)c(C)c2)cc(C)c1O [Compound 54114]	65	96	
Cc1cc(C(c2ccc(C(=O)O)cc2)c2cc(C)c(O)c(C(C)(C)C)c2)cc(C(C)(C)C)c1O [Compound 54346]	91	84	
CCC(c1cc(C)c(O)c(C)c1)c1cc(C)c(O)c(C)c1 [Compound 54471]	89	83	
CCC(c1cc(C)c(O)c(C(C)(C)C)c1)c1cc(C)c(O)c(C(C)(C)C)c1 [Compound 54472]	98	26	
